From patent US20130217094A1, “ENZYME SOLUTION FOR SEPARATING CELL, METHOD FOR SEPARATING CELL AND METHOD FOR SEPARATING PANCREATIC ISLET” (BIO LINK, INCORPORATED, priority 2010, published 2013)

Assays:
pancreatic islets [1] = test: Separation of pancreatic islets from rats with the enzyme solution: yield of pancreatic islets; assay type: cell-based; settings: per rat, n=8; collagenase (2 mg/mL) Hanks' solution infused via pancreatic duct, 37° C. 32 minutes; DIDS 200 μM or NaCl substituted with sodium glutamate
Procedure: The rats were grouped into three groups (a control group, a DIDS group, a low Cl^− group) each including 8 rats, then abdominal section was carried out to each rat under ether anesthesia, the choledoch duct was clamped in the vicinity of the entrance of the duodenum, and cannula was inserted. Then, 12 mL of Hanks' solution (NaCl: […], KCl: 400 mg/mL, MgSG4: 48.8 mg/mL, MgCl2: 46.8 mg/mL, CaCl2: 140 mg/mL, KH2PO4: 60 mg/mL, Na HPO4: 47.9 mg/mL and glucose: 1000 mg/mL) containing collagenase (2 mg/mL) was infused into the pancreas via the pancreatic duct from the cannula. However, to the DIDS group, DIDS (200 μM) as a chloride ion channel inhibitor was further added, and to the low Cl^− group, sodium chloride in the Hanks' solution was substituted with sodium glutamate.
The pancreas that had been swollen by infusion of the solution was extracted, and incubated at 37° C. for 32 minutes. Thereafter, degraded tissue was placed into 50 mL conical tube, and the Hanks' solution at 4° C. was added so as to stop the enzyme reaction. The tube was gently shaken, and subjected to centrifugation at 320G for 10 to 15 seconds. […]
For the yield of the pancreatic islets, IEQ (islet equivalents; the number of pancreatic islets based on the diameter of 150 μm) as a unit is used. […] Note here that the number of pancreatic islets whose diameter was less than 50 μm was not counted.

pancreatic islets [2] = test: Evaluation of damages in pancreatic islets (AO/PI staining, viability); assay type: cell-based, rats; settings: AO/PI fluorescence area, n=8 in each group; islets separated in Example 1
Source text: The degree of damage of pancreatic islets can be evaluated based on whether or not a barrier function of the cell membrane can be maintained. Then, the pancreatic islets of each group separated in Example 1 (n=8 in each group) was stained with acridine orange (AO) and propidium iodide as fluorescent dye. Note here that AO is taken in cells even in living cells to emit green fluorescence, and PI is taken into cells by failure of the barrier function of the cell membrane and bound to DNA to emit red fluorescence. Specifically, AO (10 μM) and PI (15 μM) were dissolved in PBS to form a solution, the pancreatic islets were incubated in the resultant solution for 10 minutes, and then the pancreatic islets were observed under fluorescence microscope. Then, by using image analysis software (Image J free software), an area of the green fluorescence and an area of the red fluorescence were obtained, the rate (%) of the area of green fluorescence excluding the area of the red fluorescence was defined as the viability (%) of pancreatic islet.

pancreatic islets [3] = test: Secretion of insulin by glucose stimulation (ELISA); assay type: cell-based, rats; settings: 60 minutes, islets 150 to 200 μm, n=10
Procedure: As a medium, RPMI1640 medium containing 3.3 mM glucose and 0.1% fetal bovine serum was used, and conditions were set at 37° C. and in 5% CO2/95% air condition. In measurement, the Transwell medium on which pancreatic islets were placed was subjected to RPMI1640 medium containing 3.3 mM glucose and 0.1% fetal bovine serum, and pre-cultured for 60 minutes. Note here that the culture was carried out at 37° C. and in 5% CO2/95% air conditions. Thereafter, the Transwell medium on which pancreatic islets were placed was moved to a new well containing the similar medium and stood still for 60 minutes (sample A). […] Thereafter, the media of the sample A and the sample B were recovered, and insulin contained in the medium was measured by using an insulin measurement kit (manufactured by Morinaga Biochemical Lab, Inc.) using the ELISA method. Then, the value obtained by dividing the insulin level of the sample B by the insulin level of the sample A was defined as an insulin secretion stimulation index.

diabetes model SCID mice = test: Transplantation of pancreatic islets to diabetes model SCID mice; assay type: in vivo
Procedure: Note here that in the following Examples, rats at an age of 9 to 10 weeks were used as a donor of the pancreatic islets. Furthermore, as a recipient, SCID mice at an age of 9 to 10 weeks were used. Streptozocin (STZ; 250 mg/kg) was intraperitoneally administered to SCID mice under anesthesia of diethyl ether, and β cells were destroyed to induce diabetes. Mice whose casual blood glucose level exceeds 350 mg/dL for two continuous days were regarded as diabetes mice, and they were used as the recipients. […] For the screening of the diabetes model SCID mice, mice whose casual blood glucose level exceeds 350 mg/dL for two continuous days by collection of blood were employed. In transplantation, the mice were subjected to ether anesthesia, and pancreatic islet was infused into the renicapsule of the left kidney by using a 250 μL pipette tip. After transplantation, the blood was recovered every day for the first seven days, and the blood glucose level was measured, and thereafter, the blood glucose level was measured three times a week. Then, on Day 30 after transplantation, the pancreatic islet-transplanted kidney was extracted. Note here that the definition of cure of diabetes was a case in which the blood glucose level was less than 150 mg/dL for three continuous days and the blood glucose level after nephrectomy was increased to more than 250 mg/dL.

Compound: O=S(=O)([O-])c1cc(N=C=S)ccc1C=Cc1ccc(N=C=S)cc1S(=O)(=O)[O-].[Na+].[Na+] [DIDS, 4,4′-di(isothiocyano)stilbene-2,2′-disodium disulfonate]
- yield of the pancreatic islets (pancreatic islets [1]): 1969±244 IEQ
- viability of the pancreatic islets (pancreatic islets [2]): 84.9±4.9%
- insulin secretion sample A (3.3 mM glucose) (pancreatic islets [3]; 3.3 mM glucose): 1.94 ± 0.44 μU
- insulin secretion sample B (20 mM glucose) (pancreatic islets [3]; 20 mM glucose): 19.0 ± 4.46 μU
- blood glucose level on Day 1 to 2 after the transplantation (diabetes model SCID mice; 200 IEQ islets transplanted to renicapsule of left kidney, STZ diabetes SCID mice, n=5): 78.7 ± 52.7 mg/dL
- mice that came to have a normal blood glucose (<150 mg/dL) (diabetes model SCID mice; 200 IEQ islets transplanted, n=5 in each group): all of five mice
